Experimental data as given in US11382908B2, “Compositions and methods for treating inflammatory bowel disease” (The Broad Institute, Inc., priority 2017, dated 2022).

Legend:
[1] = biological target: T1, ubiquitinylation of CARD9 by TRIM62 (Homo sapiens, UniProt Q9H257); test: AlphaLISA ubiquitinylation assay; assay type: biochemical; settings: reconstituted E1-E2-E3 TRIM62 complex
T1 construct: Full-length Flag-StrepII-CARD9 for AlphaLISA, DSF and NMR assays was expressed as previously described; StrepII (N); made in house; UBE1 and UBE2D2 purchased from LifeSensors, no catalogue numbers
T1 sequence (Q9H257 1-536): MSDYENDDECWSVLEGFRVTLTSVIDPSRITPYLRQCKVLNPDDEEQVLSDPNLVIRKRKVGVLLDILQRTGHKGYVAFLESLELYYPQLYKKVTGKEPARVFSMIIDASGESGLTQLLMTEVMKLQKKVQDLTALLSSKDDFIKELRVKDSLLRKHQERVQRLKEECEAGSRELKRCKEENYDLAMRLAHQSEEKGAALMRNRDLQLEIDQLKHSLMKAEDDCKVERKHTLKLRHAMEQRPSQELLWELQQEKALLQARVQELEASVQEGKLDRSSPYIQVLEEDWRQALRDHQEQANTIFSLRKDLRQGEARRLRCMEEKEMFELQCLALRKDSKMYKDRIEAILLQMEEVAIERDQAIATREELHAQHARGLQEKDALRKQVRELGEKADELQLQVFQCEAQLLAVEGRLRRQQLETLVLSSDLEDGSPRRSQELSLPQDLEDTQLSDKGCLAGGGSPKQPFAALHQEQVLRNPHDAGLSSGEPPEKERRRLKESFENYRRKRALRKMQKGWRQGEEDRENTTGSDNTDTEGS
Experimental: FlagStrep-CARD9 and TRIM62 were expressed and purified as previously described (Cao et al.). Assay-ready plates containing 80 nl of 10 mM compound in DMSO were used. Ubiquitinylation reactions contained 12.5 nM Flag-Strep-CARD9, 1.25 nM TRIM62, 500 nM ubiquitin, 10 nM UBE1 (LifeSensors), 200 nM UBE2D2 (LifeSensors), 50 mM Tris pH=7.5, 5 mM MgCl2, 2.5 mM ATP, 1 mM DTT, 0.005% Tween-20 in a final volume of 10 μl. To assemble reactions, all reaction components except ubiquitin and Trim62 were combined and dispensed at a 2× concentration in a volume of 5 μl using a Multi-Drop Combi Reagent Dispenser. Reactions were initiated by added ubiquitin and TRIM62 at a 2× concentration in a volume of 5 μL in the same manner. The reactions were incubated at ambient temperature for 90 min then stopped by the addition of 10 μl of 2× quench/detect solution using a 16-ViaFlow dispenser. The 2× quench/detect solution contained 100 mM HEPES pH=7.5, 300 mM NaCl, 0.01% Tween 20, 30 mM ETDA, 40 μg/ml Streptavidin-Donor beads, 10 μg/ml α-Flag-Acceptor beads (both from PerkinElmer) and 100 nM biotin-TUBE1 (LifeSensors). Plates were incubated at RT for an additional 1 h then read on a PerkinElmer Envision.

[2] = test system: NF-κB activation in THP-1 cells; test: NF-κB luciferase reporter assay in THP-1 cells reconstituted with Dectin-1; assay type: cell-based; settings: for WGP Dectin-1-mediated signaling to NF-κB, luciferase activity: WGP 50 μg/mL, 200 μM compound, 4-h time point
Experimental: (§1) THP-1 and HEK293T cells were from ATCC and cultured according to ATCC instructions. Cell cultures were regularly checked for mycoplasma contamination using a mycoplasma PCR test. BMDCs were isolated from femur and tibia of C57B/6 mice by harvesting bone marrows followed by hypotonic red blood cell lysis. Obtained bone marrow cells were cultured in DMEM (10% FBS, 1% penicillin/streptomycin, 1% glutamin) with 25 ng/ml GM-CSF.
CARD9 KO THP-1 cells were generated by a CRIPSR-based approach as previously described (Cao et al.). For the NF-κB luciferase assay, CARD9 KO or WT THP-1 cells lines were transduced with Dectin-1 (NM 022570) and a lentivirus-based NF-κB luciferase reporter, containing NF-κB responsive element upstream of minimal promoter and Luc2P54. CARD9 KO cells overexpressing Dectin-1 and the NF-κB luciferase reporter were rescued with indicated CARD9 constructs. For compound treatment, Compound 9 was pre-incubated with Dectin-1, NF-κB reporter expressing THP-1 cells for 2 hours, followed by stimulation with scleroglucan (50 μg/ml), whole glucan particles (WGP dispersible, Invivogen, 50 μg/ml), or LPS (100 ng/ml). Reporter luciferase activity was measured using Steadylite Plus reagent (PerkinElmer).

[3] = biological target: T2, CARD9-TRIM62 protein-protein interaction (Homo sapiens, UniProt Q9H257); test: Luminex bead-based ELISA CARD9-TRIM62 protein-protein interaction assay; assay type: binding
T2 construct: expressed in transfected cells; host or cells: HEK293F (Life Technologies, R790-07), separate transient transfections, cleared lysates
T2 sequence (Q9H257 1-536): T1 sequence (Q9H257 1-536)
Experimental: Flag-StrepII-CARD9 and TRIM62 were purified as described (Cao et al). TRIM62ΔRING and B30.2/SPRY were expressed in Sf9 cells in pFastBac as His8 fusion. For Luminex assay, HEK293F cells were transfected with 3XMyc-TRIM62 in pCMV and separately with Flag-CARD9 in pcDNA4/TO. Anti-Myc tag antibody (9E10) was conjugated to the beads and used for TRIM62 affinity capture from cleared lysates. Following the incubation with compounds, Flag-CARD9 lysate was added; after a series of washes and secondary PE-conjugated antibody incubation, readout was performed on MagPlex instruments.
HEK293F (Life Technologies, R790-07) cells were grown in Freestyle media (Cat. #12338) according to manufacturer's instructions. Cells were transiently transfected with 3XMyc-TRIM62 in pCMV and separately with Flag-CARD9 in pcDNA4/TO. Anti-Myc tag antibody (9E10, Sigma) was conjugated to the Luminex beads (10 spectral range beads in 10 separate reactions) using Pierce reagents/Luminex coupling kit. Flag-CARD9 and Myc-TRIM62 transfected cells were separately lysed in the lysis buffer (50 mM Tris pH 7.4, 150 mM NaCl, 0.5% NP40, protease inhibitors (Complete, Roche, 11873580001), phosphatase inhibitors (PhosStop, Roche, 4906845001)) and cleared by centrifugation at 10,000 g. Cleared TRIM62 lysates were added to the beads for Myc-mediated capture, incubated at room temperature for 1 hr, then washed lx and reconstituted in 1% BSA in PBS.
Screening compounds were pre-dispensed into assay-ready plates (twintecc, Eppendorf; 50 nl of 10 mM compound stock in DMSO per well). Cleared CARD9 lysate (20 μl per well) was added to the assay-ready plate and pre-incubated with the screening compounds for 30 min before addition of TRIM62-bound beads (300 beads per well, in 5 μl of 1% BSA in PBS). Plates were mixed on Bioshake IQ at 2400 rpm for 2 min and incubated for 40 min at room temperature. Plates were then washed on Biomek NX^P instrument with magnetic plate holders 1× with 1% BSA in PBS. Each 10 plates with non-identical spectral regions of beads were combined into one deep-well plate, and incubated with Flag-PE antibody conjugate (Abcam, ab72469) at the final dilution 1:400 for 1 hr. After 1× wash with 1% BSA in PBS, the readout was performed on Luminex MagPlex instruments with standard operating protocol. Bead quantity per well was employed as quality control measure, wells with bead count less than 20 were rejected from the analysis.

[4] = Truhit alphaLISA assay for non-specific alphaLISA inhibitors; settings: percent AlphaLISA signal, 100% = DMSO control
Text: Data are expressed as mean of percent AlphaLISA signal (100%=mean AlphaLISA signal with DMSO control)+/−s.d. […] The alphaLISA findings were further corroborated by TRIM62-mediated ubiquitinylation assay coupled with Western blot detection (FIG. 2E).

[5] = biological target: T1, ubiquitinylation of CARD9 by TRIM62; test: TRIM62-mediated ubiquitinylation assay with Western blot detection; assay type: biochemical
Experimental: For western blot detection, ubiquitinylation reactions contained 250 nM Flag-Strep-CARD9, 5 nM TRIM62, 5 μM of HA-tagged ubiquitin (Boston Biochem), 25 nM UBE1 (LifeSensors), 300 nM UBE2D2 (LifeSensors), 50 mM Tris pH=7.5, 5 mM MgCl2, 2.5 mM ATP, 1 mM DTT in a final volume of 20 μl. Reactions were quenched by the addition of the LDS sample buffer with 50 mM DTT. HA antibody F-7 (Santa Cruz) was used for the detection of polyubiquitin chains, and Flag M2 antibody from Sigma was used to detect Flag-StrepII-CARD9 as a loading control.

[6] = test system: phosphorylation of IKK in primary bone marrow-derived dendritic cells; test: Phospho-IKK FACS in bone marrow-derived dendritic cells; assay type: cell-based, C57B/6 mice; settings: 200 μM compound; stimuli scleroglucan (Dectin-1) or LPS (TLR4 control)
Experimental: as §1
For phospho-IKK FACS analysis, the BMDCs were plated on day 7 in U bottom 96-well plates at 150,000 cells/well in DMEM, 10% FBS, 1% penicillin/streptomycin, glutamine and GM-CSF the day before the assay. Growth media was replaced with reduced serum media (2% FBS), at this time compound 9 was added to the appropriate wells (at 200 μM) and cells were incubated for 2 hours. Cells were stimulated with 50 μg/ml scleroglucan (Invivogen) or 100 ng/ml LPS (Sigma) for the indicated times at 37° C. At the end of the incubation, media was aspirated and cells were fixed in 4% PFA for 10 min at 37° C.; then resuspended in blocking buffer (3% BSA in permeabilization buffer, eBioscience). […] FACS analysis was run on Cytoflex instrument (Beckman Coulter) and analyzed using FlowJo software by sequentially gating on live/single cells/MHCII high cell population.

Compound	inhibition of polyubiquitinylation of CARD9 by TRIM62 (AlphaLISA) [1]	WGP Dectin-1-mediated signaling to NF-κB, luciferase activity [2]	inhibition of CARD9-TRIM62 protein-protein interaction (Luminex) [3]	non-specific alphaLISA inhibition (Truhit) [4]	inhibition of in vitro CARD9 ubiquitinylation (Western blot) [5]	NF-κB activation, luciferase reporter ([2]; scleroglucan or LPS stimuli, 2 hr and 4 hr)	phosphorylation of IKK (CARD9 signaling) [6]	activation of Dectin-1-mediated signaling, NF-κB-driven luciferase reporter ([2]; 50 μg/mL WGP or scleroglucan)
NC(=O)C1(N2CCCCC2)CCN(c2ncc(NC(=O)c3ccccc3)cc2C(=O)O)CC1 [compound 6]	inhibit the functional ubiquitinylation of CARD9 by TRIM62	inhibited	dose-dependent inhibitors	Nonspecific inhibition was not observed	inhibition of in vitro CARD9 ubiquitinylation reaction	–	–	–
NC(=O)C1(N2CCCCC2)CCN(c2ncc(NC(=O)c3cccc(Cl)c3)cc2C(=O)O)CC1 [compound 7]	inhibit the functional ubiquitinylation of CARD9 by TRIM62	–	dose-dependent inhibitors	Nonspecific inhibition was not observed	inhibition of in vitro CARD9 ubiquitinylation reaction	–	–	–
Cc1ccc(C(=O)Nc2cnc(N3CCC(C(N)=O)(N4CCCCC4)CC3)c(C(=O)O)c2)cc1 [compound 9]	inhibit the functional ubiquitinylation of CARD9 by TRIM62	inhibited	dose-dependent inhibitors	Nonspecific inhibition was not observed	inhibition of in vitro CARD9 ubiquitinylation reaction	attenuates CARD9 signaling in stimulus-dependent manner	attenuates CARD9 signaling in stimulus-dependent manner	–
NC(=O)C1(N2CCCCC2)CCN(c2ccc(NC(=O)c3ccccc3F)cc2C(=O)O)CC1 [compound 11]	potent inhibitor	–	potent inhibitor	–	–	–	–	–
NC(=O)C1(N2CCCCC2)CCN(c2ncc(NC(=O)c3ccc(Cl)cc3)cc2C(=O)O)CC1 [compound 27]	inhibit the functional ubiquitinylation of CARD9 by TRIM62	–	dose-dependent inhibitors	Nonspecific inhibition was not observed	inhibition of in vitro CARD9 ubiquitinylation reaction	–	–	–
scleroglucan [reference compound]	–	–	–	–	–	–	–	more potent ligand than WGP
